# Data reported in patent US20120064008A1, “COMPOSITIONS FOR THE TREATMENT OF METASTATIC CANCER AND METHODS OF USE THEREOF” (priority 2009, published 2012).
# Where two headings read alike, the source gives them in different places.
# Legend:
# PC-3MLN4 cells = test: Normalized mitotic index (histone H3 phospho-Serine-28), PC-3MLN4; format: cell-based; conditions: Homo sapiens, at 1 μM; normalized against vehicle-treated cells; read-out: Normalized mitotic index PC-3MLN4
# Excerpt: (§1) The mitotic index for each agent was normalized against those obtained from vehicle-treated cells, and compared with the activity of paclitaxel, a known inducer of mitotic arrest.
# PC-3M cells = test: Normalized mitotic index (histone H3 phospho-Serine-28), PC-3M; format: cell-based; conditions: Homo sapiens, at 1 μM, normalized against vehicle-treated cells, read-out: Normalized mitotic index PC-3M
# Excerpt: as §1
# AT6.1 cells = test: Normalized mitotic index (histone H3 phospho-Serine-28), AT6.1; format: cell-based; conditions: Rattus norvegicus, at 1 μM; normalized against vehicle-treated cells; read-out: Normalized mitotic index AT6.1
# Excerpt: as §1
# [1] = tested on: AT6.1 Dunning rat prostate carcinoma; test: Survival in intravenous AT6.1 Dunning rat prostate carcinoma lung metastasis model; format: in vivo, nu/nu mice; conditions: 10 mg/kg three times a week
# Procedure: Many anti-tumor drugs are tested only for their ability to prevent primary tumor growth or to prevent the dissemination of metastatic cells. To accomplish this, the drug is usually administered shortly after the primary tumor is established. […] The benzimidazoles described herein were evaluated in an experimental metastases model in the lungs of nude mice following tail-vein injection of Dunning rat AT6.1 prostate carcinoma. […] In order to achieve greater bioavailability, we first solubilized benzimidazoles in DNTC formulation and then diluted with saline prior to injection.
# Inbred male nu/nu mice age 6-8 weeks were obtained from Massachusetts General Hospital (Boston, Mass.). The mice were virus antibody free, age and weight matched for experimental use and fed with a balanced rodent diet ad libitum. AT6.1 Dunning rat prostate cells were maintained as described above. 1×10^4 log-phase cells were injected via tail vein in 0.1 mL Hanks solution. Vehicle or drug treatment was started on day 5 post inoculation and given three times a week (Monday, Wednesday and Friday) via intraperitoneal injection in 0.5 mL volume. Benzimidazole drugs were prepared in the combination carrier [DMSO (12.5%), NMP (37.5%), TWEEN®-80 (25%) and CrEL (25%)] and diluted in saline. Vehicle control was prepared by diluting the combination carrier with saline.
# During the course of treatment, the mice were monitored for toxicity by measuring body weight. […] Animals were euthanized with CO2 and tissues were collected for further analysis. The animals and experiments used in these studies were approved by the institutional animal care committee according to Children's Hospital Boston ARCH guidelines.
# To distinguish differences in survival between these groups, the percent increase in life span (ILS %), defined as the percent increase in the mean time to death of drug-treated animals over the corresponding time to death for vehicle-treated mice, was calculated.
# [2] = Combination with paclitaxel, Cyquant cell growth inhibition, CompuSyn median-dose effect analysis; format: cell-based; conditions: alone or in combination, read-out: Dose Tax
# Procedure: Cell growth inhibition assays were performed using Cyquant reagent as described above. Drug interactions were quantitated by median-dose effect analysis and combination index values as well as dose reduction index were derived using CompuSyn software (ComboSyn, Inc.), as described previously in the literature. CI values of <1, =1, and >1 indicate synergism, additivity and antagonism between the drugs, respectively.
# All benzimidazole drugs were prepared using the combination carrier and diluted with culture medium prior to treatment.
# [3] = tested on: paclitaxel-resistant PC3-TR prostate cancer cells; test: Cyquant cell viability assay, PC3-TR; format: cell-based, human; conditions: 72 hours
# Procedure: (§2) The cytotoxic effects of paclitaxel, fenbendazole, and albendazole were compared in paclitaxel-resistant PC3-TR and DU145-TR prostate cancer cells with their paclitaxel-sensitive counterparts, PC3 and DU145 cells. Cells were treated for 72 hours with vehicle, paclitaxel, fenbendazole or albendazole in various doses. Cell viability was measured using Cyquant assay, and percent control was calculated by dividing the fluorescent reading from drug-treated cells with those from vehicle-treated cells, indicating percentage of cell survival.
# [4] = tested on: paclitaxel-resistant DU145-TR prostate cancer cells; test: Cyquant cell viability assay, DU145-TR; format: cell-based, human; conditions: 72 hours
# Procedure: as §2
# PC3 cells [5] = test: Normalized mitotic index, PC3; format: cell-based, human; conditions: 100 nM
# PC3-TR cells [6] = test: Normalized mitotic index, PC3-TR; format: cell-based, human; conditions: 100 nM
# DU145 cells [7] = test: Normalized mitotic index, DU145; format: cell-based, human; conditions: 100 nM
# DU145-TR cells [8] = test: Normalized mitotic index, DU145-TR; format: cell-based, human; conditions: 100 nM
# PC3 cells [9] = test: % apoptotic cells, PC3; format: cell-based, human; conditions: 100 nM
# PC3-TR cells [10] = test: % apoptotic cells, PC3-TR; format: cell-based, human; conditions: 100 nM
# DU145 cells [11] = test: % apoptotic cells, DU145; format: cell-based, human; conditions: 100 nM
# DU145-TR cells [12] = test: % apoptotic cells, DU145-TR; format: cell-based, human; conditions: 100 nM
# PC-3TxR cells = test: Subcutaneous PC-3TxR tumors in nude mice; format: in vivo; conditions: 10 mg/kg three times a week for 3 weeks
# Procedure: PC-3TxR cells were inoculated subcutaneously in the flanks of the nude mice. When the tumors reached approximately 100 mm^3 in size, the mice were treated with vehicle, paclitaxel (10 mg/kg), fenbendazole (100 mg/kg) or albendazole (100 mg/kg) three times a week for 3 weeks. These benzimidazoles were prepared in DNTC and diluted with saline prior to injection.
# PC-3TxR cells were inoculated subcutaneously in the flanks of the nude mice. When the tumors reached approximately 100 mm3 in size, the mice were treated with vehicle, paclitaxel (10 mg/kg), fenbendazole (100 mg/kg) or albendazole (100 mg/kg) three times a week for 3 weeks. These benzimidazoles were prepared in DNTC and diluted with saline prior to injection.
smiles,measurement,setting,value
CC(=O)O[C@H]1C(=O)[C@@]2(C)[C@H]([C@H](OC(=O)c3ccccc3)[C@]3(O)C[C@H](OC(=O)[C@H](O)[C@@H](NC(=O)c4ccccc4)c4ccccc4)C(C)=C1C3(C)C)[C@]1(OC(C)=O)CO[C@@H]1C[C@@H]2O [Paclitaxel],fold induction at 1 µM,PC-3MLN4 cells,2.34
same,fold induction at 1 µM,PC-3M cells,2.43
same,fold induction at 1 µM,AT6.1 cells,2.1
same,percent increase in life span (ILS %),[1],30.2%
same,EC50,"[2]; Fa 0.50, listed as Tax",0.937 µM
same,EC50,[2]; Fa 0.50,0.936 µM
same,EC50,[2]; Fa 0.60,1.392 µM
same,cytotoxic effect against PC3-TR (PC-3TxR),[3],refractory
same,cytotoxic effect against PC3-TR (PC-3TxR),[3]; listed as taxol,less effective
same,cytotoxic effect against DU145-TR (DU-145TxR),[4],refractory
same,cytotoxic effect against DU145-TR (DU-145TxR),[4]; listed as taxol,less effective
same,Normalized mitotic index (6 hours) PC3,PC3 cells [5],1.32
same,Normalized mitotic index (6 hours) PC3-TR,PC3-TR cells [6],1.56
same,Normalized mitotic index (6 hours) DU145,DU145 cells [7],3.52
same,Normalized mitotic index (6 hours) DU145-TR,DU145-TR cells [8],0.86
same,% Apoptotic cells (72 hours) PC3,PC3 cells [9],16.4%
same,% Apoptotic cells (72 hours) PC3-TR,PC3-TR cells [10],8.9%
same,% Apoptotic cells (72 hours) DU145,DU145 cells [11],37.3%
same,% Apoptotic cells (72 hours) DU145-TR,DU145-TR cells [12],11.5%
same,growth of PC-3TxR tumors compared to the vehicle treated group,PC-3TxR cells,significantly greater
